From patent US20260374766A1, “METHODS FOR TREATING CANCER” (Antares Therapeutics, Inc., priority 2022, published 2026)
Read-outs that look alike come from different tables or passages of the source.

How the values were obtained:
H1299 p53 R273H = test: Cell Proliferation Assay (CellTiter-Glo, CTG), H1299 p53 R273H (NClH1299-inducible p53 R273H); format: cell-based; conditions: Homo sapiens, NCI-H1299, 120 h, CellTiter-Glo, H1299 p53 R273H, 5 days
In short: (§1)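 Cells seeded at 250-500 per well and exposed to compound for 5 days. Viability read by CellTiter-Glo luminescence after 10 min at room temperature; IC50 calculated. H1299 lines carry Tet-One inducible p53 mutant constructs introduced by lentiviral transduction.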

H1299 p53 Y220C = test: Cell Proliferation Assay (CellTiter-Glo, CTG), H1299 p53 Y220C (NClH1299-inducible p53 Y220C); format: cell-based; conditions: Homo sapiens, NCI-H1299, 120 h, CellTiter-Glo, H1299 p53 Y220C, 5 days
In short: as §1

[1] = target: T1, p53 Y220C mutant protein (amino acid residues 94-293) (Homo sapiens, UniProt P04637, Y220C); test: Thermal Shift Assay (TSA), dTM; format: binding; conditions: thermal shift; for ΔTm at 100 µM: 100 uM compound, read-out: TSA P53 Y220C dTM (100 uM); for ΔTm at 10 µM: 10 uM compound, read-out: TSA P53 Y220C dTM (10 uM)
T1 construct: p53 Y220C mutant protein (amino acid residues 94-293)
In short: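 First, the mutant DNA-binding domain (5 μM) was preincubated 3 hours at 20 °C with compound at 10 μM or 100 μM. Next, the sample was heated from 30 °C to 50 °C at 0.03 °C/second in the presence of Sypro Orange. Finally, TM was obtained from a two-state Boltzmann fit.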

[2] = target: T1, p53 Y220C mutant protein (amino acid residues 94-293); test: Surface Plasmon Resonance (SPR) assay, Kd_kinetic; format: binding; conditions: read-out: SPR P53 Y220C KD kinetic
In short: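 Binding measured by SPR on a Biacore 8K in running buffer of 50 mM Tris pH 7.5, 100 mM NaCl, 1 mM DTT, 0.01% Brij35, 0.05% Tween-20, 1% DMSO.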

p53 Y220C = p53 Y220C (Homo sapiens, UniProt P04637, Y220C); test: Luciferase Reporter Assay (Luc), p53 response element, NClH1299 cells with inducible p53 Y220C; format: cell-based; conditions: luciferase reporter, NClH1299 inducible p53 Y220C, 6 hour; for Emax: 10 uM tool compound as positive control; for AC50: read-out: Luc P53 Y220C AC50
In short: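 Luciferase activity is measured directly after One-Glo addition and a 5-minute room-temperature shake. Before that, cells plated at 5,000 per well receive doxycycline at 0.5 ug/mL for 24 hours, followed by compound for 6 hours.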

NUGC3 p53 Y220C = test: Cell Proliferation Assay (CellTiter-Glo, CTG), NUGC3 p53 Y220C; format: cell-based; conditions: Homo sapiens, NUGC-3, 120 h, CellTiter-Glo, NUGC3 p53 Y220C, 5 days
In short: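 NClH1299 lines stably transduced with Tet-inducible p53 Y220C or R273H, plus NUGC3, were treated with compound for 5 days at 250-500 cells/well. IC50 derived from CellTiter-Glo luminescent signal after 10 min room-temperature incubation.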

| IC50 (H1299 p53 R273H) [nM] | IC50 (H1299 p53 Y220C) [nM] | ΔTm at 100 µM [1] [°C] | Kd ([2]; SPR, kinetic KD, p53 Y220C) [nM] | Emax (p53 Y220C) [%] | AC50 (p53 Y220C) [nM] | ΔTm at 10 µM [1] [°C] | Kd [2] [nM] | SMILES | IC50 (NUGC3 p53 Y220C) [nM] |
| --- | --- | --- | --- | --- | --- | --- | --- | --- | --- |
| ≥ 10000 | > 3000 | 5 to 10 | 100 to 1000 | < 70 | > 3000 |  |  | COc1cc(S(C)(=O)=O)ccc1NCC#Cc1nc2c(NC3CC4(COC4)C3)cccn2c1CC(F)(F)F [Example 115, 2-{3-[(4-methanesulfonyl-2-methoxyphenyl)amino]prop-1-yn-1-yl}-N-{2-oxaspiro[3.3]heptan-6-yl}-3-(2,2,2-trifluoroethyl)imidazo[1,2-a]pyridin-8-amine] | > 3000 |
| ≥ 10000 | > 3000 | 5 to 10 | 100 to 1000 | < 70 | > 3000 |  |  | COC(=O)N1CCC(Nc2cccn3c(CC(F)(F)F)c(C#CCNc4ccc(S(C)(=O)=O)cc4OC)nc23)CC1 [Example 116, methyl 4-[(2-{3-[(4-methanesulfonyl-2-methoxyphenyl)amino]prop-1-yn-1-yl}-3-(2,2,2-trifluoroethyl)imidazo[1,2-a]pyridin-8-yl)amino]piperidine-1-carboxylate] | > 3000 |
| ≥ 10000 | > 3000 | 5 to 10 | 10 to 100 | 70 to 80 | > 3000 |  |  | CNC(=O)N1CCC(Nc2cccn3c(CC(F)(F)F)c(C#CCNc4ccc(S(C)(=O)=O)cc4OC)nc23)CC1 [Example 117, 4-[(2-{3-[(4-methanesulfonyl-2-methoxyphenyl)amino]prop-1-yn-1-yl}-3-(2,2,2-trifluoroethyl)imidazo[1,2-a]pyridin-8-yl)amino]-N-methylpiperidine-1-carboxamide] | > 3000 |
| ≥ 10000 | 1500 to 3000 | 5 to 10 | 10 to 100 | 70 to 80 | 1500 to 3000 |  |  | CNC(=O)c1ccc(NCC#Cc2nn3c(N[C@@H]4CCN(C)C[C@@H]4F)cccc3c2CC(F)(F)F)c(OC)c1 [Example 118] | 1500 to 3000 |
| ≥ 10000 | < 750 | ≥ 10 |  | 80 to 90 | < 750 | ≥ 10 | < 10 | COc1cc(C(=O)N2CCOCC2)ccc1NCC#Cc1nc2c(N[C@@H]3CCN(C)C[C@@H]3F)cccn2c1SC(F)(F)F [Example 119] | < 750 |
| 8000 to 10000 | < 750 | ≥ 10 | < 10 | > 90 | < 750 | ≥ 10 |  | CNC(=O)c1cc(OC)c(NCC#Cc2nc3c(N[C@@H]4CCN(C)C[C@@H]4F)cccn3c2SC(F)(F)F)cc1Cl [Example 121] | < 750 |
| 5000 to 8000 | < 750 | ≥ 10 | < 10 | 80 to 90 | < 750 | ≥ 10 |  | CNC(=O)c1ccc(NCC#Cc2nc3c(N[C@@H]4C[C@H]5CC[C@@H]([C@@H]4F)N5C)cccn3c2SC(F)(F)F)c(OC)c1 [Example 122] | < 750 |
| ≥ 10000 | < 750 |  | < 10 | > 90 | < 750 | ≥ 10 |  | CNC(=O)c1ccc(O)c(NCC#Cc2cc3c(N[C@@H]4CCN(C)C[C@@H]4F)nccn3c2SC(F)(F)F)c1 [Example 123] | < 750 |
| 5000 to 8000 | < 750 |  | < 10 | > 90 | < 750 | ≥ 10 |  | CNC(=O)c1ccc(OC)c(NCC#Cc2cc3c(N[C@@H]4CCN(C)C[C@@H]4F)cccn3c2SC(F)(F)F)c1 [Example 124, 3-{[3-(8-{[(3S,4R)-3-fluoro-1-methylpiperidin-4-yl]amino}-3-[(trifluoromethyl)sulfanyl]indolizin-2-yl)prop-2-yn-1-yl]amino}-4-methoxy-N-methylbenzamide] | < 750 |
